Data taken from patent publication US20260256762A1, “Aromatic Amide Derivative, And Preparation Method Therefor And Medical Use Thereof” (ZHEJIANG HISUN PHARMACEUTICAL CO., LTD., priority 2023, published 2026).

Experiments:
[1] = Pharmacokinetic test in mice after gavage administration; format: in vivo; conditions: ICR mice, male, Oral (10 mg/mL), plasma
Protocol: Control Compound AMG650, Compound 9;
ICR mice, male, 27.3-30.3 g, purchased from Charles River Experimental Animal Technology Co., Ltd.
A proper amount of pharmaceutical compound was weighed, a proper amount of DMA, CrEL and 5% GS were added in turn, then the system was mixed evenly by ultrasonic vortex to prepare a 1 mg/mL drug administration preparation, wherein DMA, CrEL and 5% GS=10:10:80 (v:v:v).
ICR mice, each compound injection group (9 mice in each group) to be determined, were fasted overnight, fed was given 4 hours after gavage administration (PO, the dosage of the compound was 10 mg/kg, the dosage volume was 10 mL/kg).
About 0.1 mL blood was collected from orbits 0.25 hours, 0.5 hours, 1 hour, 2 hours, 4 hours, 8 hours, 10 hours and 24 hours […] after drug administration, and a whole blood sample was placed in an anticoagulant tube including EDTA-K2. Blood samples were collected and then placed on ice, and plasma was separated by centrifugation (centrifugation condition: 1500 g, 10 minutes). The collected plasma was stored at −40° C. to −20° C. before analysis.
LC-MS/MS was used to determine the content of compounds to be tested in plasma of mice after gavage administration.

OVCAR-3 cells = experiment: Inhibition of proliferation of OVCAR-3 cells (CellTiter-Glo); format: cell-based; conditions: Homo sapiens, OVCAR-3 cells (TP53 R248Q mutation), 72 hours, read-out: IC50 inhibiting the proliferation of OVCAR-3 cells
Protocol: (§1) The following method was used to determine the effect of the compound of the present invention on the proliferation of OVCAR-3 cells. OVCAR-3 cells (comprising TP53 R248Q mutation) were purchased from the Cell Resource Center of Shanghai Institute of Life Sciences, Chinese Academy of Sciences, and cultured in a RPMI 1640 medium comprising10% fetal bovine serum, 100 U penicillin and 100 μg/mL streptomycin. Cell viability was determined by Cell Titer-Glo® Luminescent Cell Viability Assay Kit (Promega, article No. G7573).
(§2) An experimental method was carried out according to steps provided in the kit manual, with details as follows: firstly, a test compound was dissolved in DMSO to prepare a 10 mM storage solution, and then diluted with a culture medium to prepare a test sample. A final concentration of the compound ranged from 1000 nM to 0.015 nM. Cells in a logarithmic growth phase were inoculated into a 96-mesh cell culture plate at a density of 1000 cells per mesh, cultured overnight in a 5% CO2 incubator at 37° C., and then cultured for 72 hours after adding the test compound. After completion of cultivation, 50 uL CellTiter-Glo detection solution was added into each mesh, shook for 5 minutes, and stood for 10 minutes, and then a luminous value of each mesh of the sample was read by a microplate reader using Luminescence mode. Compared with the numerical value of a control group (0.3% DMSO), a percentage inhibition rate of the compound at each concentration point was calculated, and then an IC50 value of the compound inhibiting cell proliferation was obtained by a nonlinear regression analysis with a logarithmic-inhibition rate of the compound concentration in a GraphPad Prism 5 software, as shown in Table 1.

HT-29 cells = experiment: Inhibition of proliferation of HT-29 cells (CellTiter-Glo); format: cell-based; conditions: Homo sapiens, HT-29 cells (TP53 R273H mutation), 120 hours, read-out: IC50 inhibiting the proliferation of HT-29 cells
Protocol: as §1, with “HT-29” for “OVCAR-3”, “R273H” for “R248Q”, “McCOY's 5A” for “RPMI 1640”, “comprising 10%” for “comprising10%”
as §2, with “per mesh, and cultured overnight” for “per mesh, cultured overnight”, “cultured for 120 hours after” for “cultured for 72 hours after”, “Compared with a numerical value” for “Compared with the numerical value”, “in Table 2.” for “in Table 1.”

[2] = molecular target: T1, recombinant human KIF18A enzyme (Homo sapiens, UniProt Q8NI77); experiment: Inhibition of KIF18A enzyme activity (ADP-Glo); format: biochemical; conditions: recombinant human KIF18A protein 100 nM, ATP 60 uM, read-out: IC50 inhibiting KIF18A enzyme activity
T1 construct: purchased Genscript
T1 sequence (Q8NI77 whole entry): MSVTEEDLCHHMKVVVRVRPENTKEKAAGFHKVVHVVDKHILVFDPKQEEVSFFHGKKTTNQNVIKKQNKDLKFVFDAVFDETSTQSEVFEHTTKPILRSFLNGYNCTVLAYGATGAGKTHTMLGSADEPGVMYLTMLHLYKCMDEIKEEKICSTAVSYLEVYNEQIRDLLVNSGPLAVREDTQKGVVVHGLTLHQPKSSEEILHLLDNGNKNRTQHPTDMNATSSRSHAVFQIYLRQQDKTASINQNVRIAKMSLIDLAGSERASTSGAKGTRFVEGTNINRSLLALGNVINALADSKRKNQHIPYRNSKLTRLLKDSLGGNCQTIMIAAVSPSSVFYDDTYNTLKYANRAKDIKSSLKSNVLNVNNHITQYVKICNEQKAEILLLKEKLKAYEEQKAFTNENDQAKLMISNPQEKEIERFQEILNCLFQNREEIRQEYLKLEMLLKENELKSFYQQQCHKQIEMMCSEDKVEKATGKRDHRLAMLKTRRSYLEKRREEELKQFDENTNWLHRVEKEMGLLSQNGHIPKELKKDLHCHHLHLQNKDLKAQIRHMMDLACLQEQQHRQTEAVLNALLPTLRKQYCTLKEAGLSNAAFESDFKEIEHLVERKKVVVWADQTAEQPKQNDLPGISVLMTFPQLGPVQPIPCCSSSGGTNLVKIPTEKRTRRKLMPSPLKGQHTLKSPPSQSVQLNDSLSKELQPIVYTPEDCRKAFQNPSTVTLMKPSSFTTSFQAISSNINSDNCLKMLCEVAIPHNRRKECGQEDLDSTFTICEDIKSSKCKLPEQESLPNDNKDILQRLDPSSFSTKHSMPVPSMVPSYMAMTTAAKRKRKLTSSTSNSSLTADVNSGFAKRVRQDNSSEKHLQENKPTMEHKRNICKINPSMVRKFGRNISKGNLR
T1 sequence (P68363 whole entry partner): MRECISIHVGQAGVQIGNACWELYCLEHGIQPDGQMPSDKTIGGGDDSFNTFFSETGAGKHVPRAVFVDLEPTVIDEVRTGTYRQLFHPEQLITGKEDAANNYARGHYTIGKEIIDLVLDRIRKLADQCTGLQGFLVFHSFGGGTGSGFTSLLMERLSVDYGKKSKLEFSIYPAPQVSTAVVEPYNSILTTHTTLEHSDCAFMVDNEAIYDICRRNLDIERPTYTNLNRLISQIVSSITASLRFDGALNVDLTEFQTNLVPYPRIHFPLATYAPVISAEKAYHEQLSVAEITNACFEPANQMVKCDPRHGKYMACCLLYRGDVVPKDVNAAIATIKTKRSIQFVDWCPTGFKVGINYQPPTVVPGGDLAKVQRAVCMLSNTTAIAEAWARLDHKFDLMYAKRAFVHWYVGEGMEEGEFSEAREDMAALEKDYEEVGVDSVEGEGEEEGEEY
T1 sequence (P07437 whole entry partner): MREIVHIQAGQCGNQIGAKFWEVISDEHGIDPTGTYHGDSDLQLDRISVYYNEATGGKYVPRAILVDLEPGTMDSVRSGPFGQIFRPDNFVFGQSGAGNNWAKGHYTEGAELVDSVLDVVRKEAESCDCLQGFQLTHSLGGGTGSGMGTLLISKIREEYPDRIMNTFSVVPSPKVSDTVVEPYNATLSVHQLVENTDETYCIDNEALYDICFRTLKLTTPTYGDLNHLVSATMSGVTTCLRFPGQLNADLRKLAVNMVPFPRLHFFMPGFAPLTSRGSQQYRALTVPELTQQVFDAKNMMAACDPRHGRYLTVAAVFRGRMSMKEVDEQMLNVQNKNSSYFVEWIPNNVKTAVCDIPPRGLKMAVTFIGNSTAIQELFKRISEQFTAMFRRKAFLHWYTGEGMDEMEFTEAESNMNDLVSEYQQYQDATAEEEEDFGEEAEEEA
Protocol: The following method was used to determine a degree of inhibition of the compound of the present invention on the activity of recombinant human KIF18A enzyme in vitro. The method used ADP-Glo™ Kinase Assay kit (article No. V9102) of Promega Company. For detailed experimental operation, please refer to the kit instructions.
Firstly, the compound and recombinant human KIF18A protein (final concentration of 100 nM, entrusted to Genscript for expression) were added into the mesh, and incubated at room temperature for 20 minutes. Then, ATP solution (component V915A from ADP-Glo™ Kinase Assay kit, final concentration of 60 uM) was added to the reaction solution, and the mixture was incubated at room temperature for 20 minutes. Subsequently, 5 μL ADP-Glo Reagent was added to the reaction system and the obtained system was incubated at troom temperature for 50 minutes. After that, 10 μL of Kinase Detection Reagent was added to the reaction system and the obtained system was incubated at room temperature for 30 minutes. After the completion of incubation, a chemiluminescence intensity value of each mesh was measured by a microplate reader using Luminescence mode.

SMILES	IC50 (OVCAR-3 cells) [nM]	IC50 (HT-29 cells) [nM]	IC50 [2] [nM]	also measured
Cc1cc(NC(=O)c2ccc(NS(=O)(=O)CCO)cc2N2CCC3(CC2)CC3)nc(N2CCC(F)(F)CC2)n1 [AMG 650, reference compound]				Blood concentration Cmax [1]: 3050 ng/mL; Curve area AUC0-∞ [1]: 52500 ng·h/mL; Half-life period T½ [1]: 9.64 h
CCS(=O)(=O)Nc1ccc(C(=O)Nc2ccc(C#N)c(N3CCC(F)(F)CC3)c2)c(N2CCC3(CC2)CC3)c1 [Example 8, N-(4-cyano-3-(4,4-difluoropiperidin-1-yl)phenyl)-4-(ethylsulfonamido)-2-(6-azaspiro[2.5]octan-6-yl) benzamide]	17.4	14.5	97.8	
CCS(=O)(=O)Nc1ccc(C(=O)Nc2ccc(OC)c(N3CCC(F)(F)CC3)c2)c(N2CCC3(CC2)CC3)c1 [Example 9, N-(3-(4,4-difluoropiperidin-1-yl)-4-methoxyphenyl)-4-(ethylsulfonamido)-2-(6-azaspiro[2.5]octan-6-yl) benzamide]	1.5	3.3		Cmax ([1]; mouse, 10 mg/kg, read-out: Blood concentration Cmax): 5270 ng/mL; AUC(0-inf) ([1]; mouse, 10 mg/kg, read-out: Curve area AUC0-∞): 52200 ng·h/mL; half-life ([1]; mouse, 10 mg/kg, read-out: Half-life period T½ (converted)): 5.9 h
CCS(=O)(=O)Nc1ccc(C(=O)Nc2ccc(OC)c(N3CCOCC3)c2)c(N2CCC3(CC2)CC3)c1 [Example 10, 4-(ethylsulfonamido)-N-(4-methoxy-3-morpholinophenyl)-2-(6-azaspiro[2.5]octan-6-yl)benzamide]	7.5	42.8		
CCS(=O)(=O)Nc1ccc(C(=O)Nc2ccc(OC)c(CN3CC(F)(F)C3)c2)c(N2CCC3(CC2)CC3)c1 [Example 11, N-(3-((3,3-difluoroazetidin-1-yl)methyl)-4-methoxyphenyl)-4-(ethylsulfonamido)-2-(6-azaspiro[2.5]octan-6-yl)benzamide]	14.7	3.9	145	
CCS(=O)(=O)Nc1ccc(C(=O)Nc2ccc(OC(F)(F)F)c(N3CCC(F)(F)CC3)c2)c(N2CCC3(CC2)CC3)c1 [Example 13, N-(3-(4,4-difluoropiperidin-1-yl)-4-(trifluoromethoxy)phenyl)-4-(ethylsulfonamido)-2-(6-azaspiro[2.5]octan-6-yl)benzamide]			137	
CCS(=O)(=O)Nc1ccc(C(=O)Nc2ccc(OC)c(-c3ccc(F)cn3)c2)c(N2CCC3(CC2)CC3)c1 [Example 16, 4-(ethylsulfonamido)-N-(3-(5-fluoropyridine-2-yl)-4-methoxyphenyl)-2-(6-azaspiro [2.5]octan-6-yl) benzamide]	4.5	27.1	185	

The next lines start with results.

IC50 (OVCAR-3 cells) [nM]	IC50 (HT-29 cells) [nM]	IC50 [2] [nM]	SMILES	also measured
1.5	3.2		COc1ccc(NC(=O)c2ccc(NS(=O)(=O)CCO)cc2N2CCC3(CC2)CC3)cc1N1CCC(F)(F)CC1 [Example 6, N-(3-(4,4-difluoropiperidin-1-yl)-4-methoxyphenyl)-4-((2-hydroxyethyl)sulfonamido)-2-(6-azaspiro[2.5]octan-6-yl)benzamide]	
1.9	52.4	177	N#Cc1ccc(NC(=O)c2ccc(NS(=O)(=O)CCO)cc2N2CCC3(CC2)CC3)cc1N1CCC(F)(F)CC1 [Example 7, N-(4-cyano-3-(4,4-difluoropiperidin-1-yl)phenyl)-4-((2-hydroxyethyl)sulfonamido)-2-(6-azaspiro[2.5]octan-6-yl)benzamide]	
